Data published in publication doi:10.1101/2022.12.17.520850v1, “A-ring-fused pyrazoles of dihydrotestosterone targeting prostate cancer cells via the downregulation of the androgen receptor” (biorxiv, 2022).

Target: T1, human recombinant AR-LBD (Homo sapiens, UniProt P10275)
T1 sequence (P10275 664-920): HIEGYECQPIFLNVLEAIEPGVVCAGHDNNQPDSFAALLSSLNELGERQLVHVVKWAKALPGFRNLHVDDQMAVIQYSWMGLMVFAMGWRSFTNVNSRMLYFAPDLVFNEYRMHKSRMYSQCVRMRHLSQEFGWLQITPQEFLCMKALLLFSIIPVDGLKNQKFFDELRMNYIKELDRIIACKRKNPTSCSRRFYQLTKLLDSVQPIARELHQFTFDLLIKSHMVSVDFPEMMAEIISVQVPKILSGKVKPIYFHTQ
Experiment: microscale thermophoresis
Type: binding
Conditions: […] 3d, […] His-tagged AR-LBD, […] Tris, […] NaCl, pH […] DTT, […] Tween; labelled protein

Cc1c2c(nn1-c1ccc(F)cc1)C[C@@H]1CC[C@@H]3[C@H](CC[C@]4(C)[C@@H](O)CC[C@@H]34)[C@@]1(C)C2 [3d]
microscale thermophoresis: confirmed thus binding of 3d into the AR-LBD
